Literature values in PubChem BioAssay AID1259409 (Chemical Carcinogenesis Research Information System (CCRIS), 2018).

Tested on: rodent chemically induced tumor inhibition, incidence and multiplicity
Assay: CCRIS tumor inhibitor studies

COc1cc(/C=C/C(=O)CC(=O)/C=C/c2ccc(O)c(OC)c2)ccc1O
tumour outcome (control, treated, inhibition, significance) (Carcinogen: 7,12-DIMETHYLBENZ[A]ANTHRACENE, 57-97-6, Dose [Inhibitor]: 10 UMOL IN MINERAL OIL APPLIED TO BUCCAL POUCH 3/WK BEGINNING 2 D AFTER LAST CARCINOGEN DOSE (STUDY DURATION: 24 WK), Route [Inhibitor]: MUCOUS MEMBRANE, Species: HAMSTER, Strain/Sex: SYRIAN/MALE, Target Tissue: Type of Lesion: BUCCAL POUCH: PAPILLOMA, Dose [Carcinogen]: 0.5% IN MINERAL OIL APPLIED TO BUCCAL POUCH 3'/WK FOR 6 WK, Promoter: NONE USED): 21/26 (80.7%), 20/26 (76.9%), 4.71%, not significant
tumour outcome (control, treated, inhibition, significance) (Carcinogen: 7,12-DIMETHYLBENZ[A]ANTHRACENE, 57-97-6, Dose [Inhibitor]: 10 UMOL IN MINERAL OIL APPLIED TO BUCCAL POUCH 3/WK BEGINNING 2 D AFTER LAST CARCINOGEN DOSE (STUDY DURATION: 24 WK), Route [Inhibitor]: MUCOUS MEMBRANE, Species: HAMSTER, Strain/Sex: SYRIAN/MALE, Target Tissue: Type of Lesion: BUCCAL POUCH: SQUAMOUS CELL CARCINOMA, Dose [Carcinogen]: 0.5% IN MINERAL OIL APPLIED TO BUCCAL POUCH 3'/WK FOR 6 WK, Promoter: NONE USED): 20/26 (76.9%), 13/26 (50%), 35%, p< 0.05
tumour outcome (control, treated, inhibition, significance) (Carcinogen: 7,12-DIMETHYLBENZ[A]ANTHRACENE, 57-97-6, Dose [Inhibitor]: 10 UMOL IN MINERAL OIL APPLIED TO BUCCAL POUCH 3/WK BEGINNING 2 D AFTER LAST CARCINOGEN DOSE (STUDY DURATION: 24 WK), Route [Inhibitor]: MUCOUS MEMBRANE, Species: HAMSTER, Strain/Sex: SYRIAN/MALE, Target Tissue: Type of Lesion: BUCCAL POUCH: TUMOR, Dose [Carcinogen]: 0.5% IN MINERAL OIL APPLIED TO BUCCAL POUCH 3'/WK FOR 6 WK, Promoter: NONE USED): 24/26 (92.3%), 20/26 (76.9%), 16.7%, not significant
tumour outcome (control, treated, inhibition, significance) (Carcinogen: 7,12-Dimethylbenzanthracene, 57-97-6, Dose [Inhibitor]: 1% as turmeric (equivalent to 0.05% curcumin) in diet, starting 15 d before carcinogen application to 12 wks after carci, Route [Inhibitor]: Diet, Species: Hamster, Strain/Sex: Syrian golden/Male, Target Tissue: Type of Lesion: Buccal (oral) tissues: Tumor, Dose [Carcinogen]: 0.5% in 0.1 ml oil 3 x wk for 12 wk, study duration 12 wk, Promoter: None): 100%, 55%, 45% at 12 wks (from table)
tumour outcome (control, treated, inhibition, significance) (Carcinogen: AZOXYMETHANE, 25843-45-2, Dose [Inhibitor]: 0, 0.5% COMMERCIAL GRADE CURCUMIN IN DIET FOR 35 WK BEGINNING 2 WK PRIOR TO CARCINOGEN TREATMENT (STUDY DURATION: 35 WK), Route [Inhibitor]: ORAL, Species: MOUSE, Strain/Sex: CF-1/FEMALE, Target Tissue: Type of Lesion: COLON: ADENOCARCINOMA, Dose [Carcinogen]: 10 MG/KG BW IN 100 µL NORMAL SALINE 1/WK FOR 6 WK, Promoter: NONE USED): 40%, 22%, 45%, not significant
tumour outcome (control, treated, inhibition, significance) (Carcinogen: AZOXYMETHANE, 25843-45-2, Dose [Inhibitor]: 0, 0.5% COMMERCIAL GRADE CURCUMIN IN DIET FOR 35 WK BEGINNING 2 WK PRIOR TO CARCINOGEN TREATMENT (STUDY DURATION: 35 WK), Route [Inhibitor]: ORAL, Species: MOUSE, Strain/Sex: CF-1/FEMALE, Target Tissue: Type of Lesion: COLON: ADENOMA, Dose [Carcinogen]: 10 MG/KG BW IN 100 µL NORMAL SALINE 1/WK FOR 6 WK, Promoter: NONE USED): 93%, 69%, 26%, not significant
tumour outcome (control, treated, inhibition, significance) (Carcinogen: AZOXYMETHANE, 25843-45-2, Dose [Inhibitor]: 0, 2% COMMERCIAL GRADE CURCUMIN IN DIET FOR 9 WK BEGINNING 2 WK PRIOR TO CARCINOGEN TREATMENT (STUDY DURATION: 35 WK), Route [Inhibitor]: ORAL, Species: MOUSE, Strain/Sex: CF-1/FEMALE, Target Tissue: Type of Lesion: COLON: ADENOCARCINOMA, Dose [Carcinogen]: 10 MG/KG BW IN 100 µL NORMAL SALINE 1/WK FOR 6 WK, Promoter: NONE USED): 40%, 9%, 78%, not significant
tumour outcome (control, treated, inhibition, significance) (Carcinogen: AZOXYMETHANE, 25843-45-2, Dose [Inhibitor]: 0, 2% COMMERCIAL GRADE CURCUMIN IN DIET FOR 9 WK BEGINNING 2 WK PRIOR TO CARCINOGEN TREATMENT (STUDY DURATION: 35 WK), Route [Inhibitor]: ORAL, Species: MOUSE, Strain/Sex: CF-1/FEMALE, Target Tissue: Type of Lesion: COLON: ADENOMA, Dose [Carcinogen]: 10 MG/KG BW IN 100 µL NORMAL SALINE 1/WK FOR 6 WK, Promoter: NONE USED): 93%, 61%, 34%, not significant
tumour outcome (control, treated, inhibition, significance) (Carcinogen: AZOXYMETHANE, 25843-45-2, Dose [Inhibitor]: 0, 2% COMMERCIAL GRADE CURCUMIN IN DIET FOR 26 WK BEGINNING 1 WK POST CARCINOGEN TREATMENT (STUDY DURATION: 35 WK), Route [Inhibitor]: ORAL, Species: MOUSE, Strain/Sex: CF-1/FEMALE, Target Tissue: Type of Lesion: COLON: ADENOCARCINOMA, Dose [Carcinogen]: 10 MG/KG BW IN 100 µL NORMAL SALINE 1/WK FOR 6 WK, Promoter: NONE USED): 40%, 24%, 40%, not significant
tumour outcome (control, treated, inhibition, significance) (Carcinogen: AZOXYMETHANE, 25843-45-2, Dose [Inhibitor]: 0, 2% COMMERCIAL GRADE CURCUMIN IN DIET FOR 26 WK BEGINNING 1 WK POST CARCINOGEN TREATMENT (STUDY DURATION: 35 WK), Route [Inhibitor]: ORAL, Species: MOUSE, Strain/Sex: CF-1/FEMALE, Target Tissue: Type of Lesion: COLON: ADENOMA, Dose [Carcinogen]: 10 MG/KG BW IN 100 µL NORMAL SALINE 1/WK FOR 6 WK, Promoter: NONE USED): 93%, 85%, 9%, not significant
tumour outcome (control, treated, inhibition, significance) (Carcinogen: AZOXYMETHANE, 25843-45-2, Dose [Inhibitor]: 0, 2% COMMERCIAL GRADE CURCUMIN IN DIET FOR 35 WK BEGINNING 2 WK PRIOR TO CARCINOGEN TREATMENT (STUDY DURATION: 35 WK), Route [Inhibitor]: ORAL, Species: MOUSE, Strain/Sex: CF-1/FEMALE, Target Tissue: Type of Lesion: COLON: ADENOCARCINOMA, Dose [Carcinogen]: 10 MG/KG BW IN 100 µL NORMAL SALINE 1/WK FOR 6 WK, Promoter: NONE USED): 40%, 0%, 100%, not significant
tumour outcome (control, treated, inhibition, significance) (Carcinogen: AZOXYMETHANE, 25843-45-2, Dose [Inhibitor]: 0, 2% COMMERCIAL GRADE CURCUMIN IN DIET FOR 35 WK BEGINNING 2 WK PRIOR TO CARCINOGEN TREATMENT (STUDY DURATION: 35 WK), Route [Inhibitor]: ORAL, Species: MOUSE, Strain/Sex: CF-1/FEMALE, Target Tissue: Type of Lesion: COLON: ADENOMA, Dose [Carcinogen]: 10 MG/KG BW IN 100 µL NORMAL SALINE 1/WK FOR 6 WK, Promoter: NONE USED): 93%, 68%, 27%, not significant
tumour outcome (control, treated, inhibition, significance) (Carcinogen: AZOXYMETHANE, 25843-45-2, Dose [Inhibitor]: 0, 2% PURE CURCUMIN IN DIET FOR 35 WK BEGINNING 2 WK PRIOR TO CARCINOGEN TREATMENT (STUDY DURATION: 35 WK), Route [Inhibitor]: ORAL, Species: MOUSE, Strain/Sex: CF-1/FEMALE, Target Tissue: Type of Lesion: COLON: ADENOCARCINOMA, Dose [Carcinogen]: 10 MG/KG BW IN 100 µL NORMAL SALINE 1/WK FOR 6 WK, Promoter: NONE USED): 40%, 14%, 65%, not significant
tumour outcome (control, treated, inhibition, significance) (Carcinogen: AZOXYMETHANE, 25843-45-2, Dose [Inhibitor]: 0, 2% PURE CURCUMIN IN DIET FOR 35 WK BEGINNING 2 WK PRIOR TO CARCINOGEN TREATMENT (STUDY DURATION: 35 WK), Route [Inhibitor]: ORAL, Species: MOUSE, Strain/Sex: CF-1/FEMALE, Target Tissue: Type of Lesion: COLON: ADENOMA, Dose [Carcinogen]: 10 MG/KG BW IN 100 µL NORMAL SALINE 1/WK FOR 6 WK, Promoter: NONE USED): 93%, 62%, 33%, not significant
